ChEMBL document CHEMBL4627322, “Design and synthesis of a novel class EGFR/HER2 dual inhibitors containing tricyclic oxazine fused quinazolines scaffold” (Bioorg Med Chem Lett, 2020)

Legend:
[1] = tested on: NCI-N87; experiment: cells; assay type: functional, cell-based; conditions: Homo sapiens, NCI-N87, 72 h
Description: Antiproliferative activity against human NCI-N87 cells overexpressing HER2 assessed as cell growth inhibition measured after 72 hrs by MTT assay

[2] = tested on: NCI-H1975; experiment: cells; assay type: functional, cell-based; conditions: Homo sapiens, NCI-H1975, 72 h
Description: Antiproliferative activity against human NCI-H1975 cells harboring EGFR L858R/T790M mutant assessed as cell growth inhibition measured after 72 hrs by MTT assay

[3] = tested on: A-431; experiment: cells; assay type: functional, cell-based; conditions: Homo sapiens, A-431, 72 h
Description: Antiproliferative activity against human A431 cells overexpressing EGFR assessed as cell growth inhibition measured after 72 hrs by MTT assay

[4] = tested on: BT-474; experiment: cells; assay type: functional, cell-based; conditions: Homo sapiens, BT-474, 72 h
Description: Antiproliferative activity against human BT474 cells overexpressing HER2 assessed as cell growth inhibition measured after 72 hrs by MTT assay

[5] = tested on: Calu-3; experiment: cells; assay type: functional, cell-based; conditions: Homo sapiens, Calu-3, 72 h
Description: Antiproliferative activity against human Calu3 cells overexpressing HER2 assessed as cell growth inhibition measured after 72 hrs by MTT assay

[6] = molecular target: T1, Epidermal growth factor receptor (Homo sapiens, UniProt P00533); assay type: cell-based, KB
T1 sequence (P00533 whole entry): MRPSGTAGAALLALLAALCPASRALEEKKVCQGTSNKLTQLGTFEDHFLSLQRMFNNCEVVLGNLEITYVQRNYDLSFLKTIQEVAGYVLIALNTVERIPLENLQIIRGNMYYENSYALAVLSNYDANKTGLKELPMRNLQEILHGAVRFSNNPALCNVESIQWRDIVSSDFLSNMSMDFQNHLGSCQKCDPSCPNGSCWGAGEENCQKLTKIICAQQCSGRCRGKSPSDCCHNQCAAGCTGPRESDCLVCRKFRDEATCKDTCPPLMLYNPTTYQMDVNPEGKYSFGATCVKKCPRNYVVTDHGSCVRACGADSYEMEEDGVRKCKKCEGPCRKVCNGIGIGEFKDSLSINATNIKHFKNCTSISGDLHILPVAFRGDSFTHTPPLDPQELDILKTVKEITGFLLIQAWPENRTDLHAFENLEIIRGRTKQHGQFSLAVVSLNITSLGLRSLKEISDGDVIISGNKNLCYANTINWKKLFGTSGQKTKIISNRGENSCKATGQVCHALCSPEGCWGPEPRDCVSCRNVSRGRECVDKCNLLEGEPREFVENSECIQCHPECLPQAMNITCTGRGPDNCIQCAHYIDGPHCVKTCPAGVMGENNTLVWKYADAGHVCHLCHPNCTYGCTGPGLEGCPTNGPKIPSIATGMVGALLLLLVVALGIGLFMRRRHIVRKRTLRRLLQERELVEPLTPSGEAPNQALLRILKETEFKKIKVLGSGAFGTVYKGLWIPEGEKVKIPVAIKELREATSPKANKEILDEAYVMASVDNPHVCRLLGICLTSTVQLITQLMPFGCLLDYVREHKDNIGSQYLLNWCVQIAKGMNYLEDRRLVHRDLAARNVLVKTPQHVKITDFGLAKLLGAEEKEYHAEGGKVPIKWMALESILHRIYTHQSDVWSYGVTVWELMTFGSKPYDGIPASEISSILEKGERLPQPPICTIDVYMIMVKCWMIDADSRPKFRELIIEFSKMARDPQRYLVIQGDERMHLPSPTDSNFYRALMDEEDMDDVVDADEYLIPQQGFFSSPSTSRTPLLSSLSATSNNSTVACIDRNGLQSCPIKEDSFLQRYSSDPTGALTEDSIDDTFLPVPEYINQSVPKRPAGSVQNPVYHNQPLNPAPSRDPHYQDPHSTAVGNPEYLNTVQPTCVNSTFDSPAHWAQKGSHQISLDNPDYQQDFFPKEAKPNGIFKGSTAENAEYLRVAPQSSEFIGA
Description: Inhibition of EGFR in human KB cells assessed as reduction in EGF-stimulated EGFR phosphorylation preincubated for 1 hr followed by EGF stimulation and measured after 6 mins by ELISA

[7] = molecular target: T1, Epidermal growth factor receptor
Description: Inhibition of EGFR (unknown origin) using FAM-labeled peptide as substrate preincubated for 10 mins followed by substrate addition measured after 40 mins in presence of ATP by caliper mobility shift assay

[8] = molecular target: T2, Receptor tyrosine-protein kinase erbB-2 (Homo sapiens, UniProt P04626); experiment: Inhibition of HER2 (unknown origin) using FAM-labeled peptide as substrate preincubated for 10 mins followed by substrate addition measured after 40 mins in presence of ATP by caliper mobility shift assay
T2 sequence (P04626 whole entry): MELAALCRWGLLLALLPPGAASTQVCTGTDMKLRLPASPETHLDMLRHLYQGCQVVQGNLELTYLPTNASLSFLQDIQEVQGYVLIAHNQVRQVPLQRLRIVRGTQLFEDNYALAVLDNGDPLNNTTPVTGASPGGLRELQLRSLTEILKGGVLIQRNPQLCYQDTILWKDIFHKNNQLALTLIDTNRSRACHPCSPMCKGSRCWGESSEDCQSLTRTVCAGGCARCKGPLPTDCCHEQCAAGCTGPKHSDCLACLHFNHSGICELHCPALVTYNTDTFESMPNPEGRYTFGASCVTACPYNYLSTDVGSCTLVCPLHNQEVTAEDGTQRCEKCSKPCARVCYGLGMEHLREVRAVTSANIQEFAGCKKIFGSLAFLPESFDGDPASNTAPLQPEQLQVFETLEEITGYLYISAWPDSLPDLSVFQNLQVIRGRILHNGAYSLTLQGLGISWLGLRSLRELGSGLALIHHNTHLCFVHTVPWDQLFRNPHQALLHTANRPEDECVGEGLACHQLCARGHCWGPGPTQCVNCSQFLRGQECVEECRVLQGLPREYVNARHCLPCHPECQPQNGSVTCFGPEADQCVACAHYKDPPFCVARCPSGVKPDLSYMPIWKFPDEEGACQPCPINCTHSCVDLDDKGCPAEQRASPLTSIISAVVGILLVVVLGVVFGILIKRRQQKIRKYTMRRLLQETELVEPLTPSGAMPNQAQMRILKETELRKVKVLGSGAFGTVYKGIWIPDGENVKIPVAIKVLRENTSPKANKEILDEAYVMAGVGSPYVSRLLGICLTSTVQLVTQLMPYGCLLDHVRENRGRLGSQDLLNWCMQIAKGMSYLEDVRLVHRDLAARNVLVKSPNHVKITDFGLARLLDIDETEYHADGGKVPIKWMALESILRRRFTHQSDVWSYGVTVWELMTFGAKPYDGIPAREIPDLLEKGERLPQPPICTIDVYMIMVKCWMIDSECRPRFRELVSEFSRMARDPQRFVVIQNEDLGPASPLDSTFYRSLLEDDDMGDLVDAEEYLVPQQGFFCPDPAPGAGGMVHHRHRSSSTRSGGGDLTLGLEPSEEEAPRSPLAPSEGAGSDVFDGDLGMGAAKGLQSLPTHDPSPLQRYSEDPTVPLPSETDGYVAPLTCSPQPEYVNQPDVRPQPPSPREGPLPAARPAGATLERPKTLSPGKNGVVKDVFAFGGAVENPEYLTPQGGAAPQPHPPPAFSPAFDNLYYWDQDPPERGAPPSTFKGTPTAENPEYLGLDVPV

[9] = tested on: NCI-H1975; experiment: Potency index, ratio of lapatinib IC50 to test compound IC50 for antiproliferative activity against human NCI-H1975 cells harboring EGFR L858R/T790M mutant assessed as cell growth inhibition measured after 72 hrs by MTT assay; assay type: functional
[10] = tested on: NCI-H1975; experiment: Potency index, ratio of gefitinib IC50 to test compound IC50 for antiproliferative activity against human NCI-H1975 cells harboring EGFR L858R/T790M mutant assessed as cell growth inhibition measured after 72 hrs by MTT assay; assay type: functional
[11] = tested on: NCI-H1975; experiment: Potency index, ratio of erlotinib IC50 to test compound IC50 for antiproliferative activity against human NCI-H1975 cells harboring EGFR L858R/T790M mutant assessed as cell growth inhibition measured after 72 hrs by MTT assay; assay type: functional
[12] = molecular target: T1, Epidermal growth factor receptor; experiment: Potency index, ratio of lapatinib IC50 to test compound IC50 for inhibition of EGFR (unknown origin) using FAM-labeled peptide as substrate preincubated for 10 mins followed by substrate addition measured after 40 mins in presence of ATP by caliper mobility shift assay
[13] = molecular target: T2, Receptor tyrosine-protein kinase erbB-2; experiment: Potency index, ratio of gefitinib IC50 to test compound IC50 for inhibition of HER2 (unknown origin) using FAM-labeled peptide as substrate preincubated for 10 mins followed by substrate addition measured after 40 mins in presence of ATP by caliper mobility shift assay
[14] = molecular target: T2, Receptor tyrosine-protein kinase erbB-2; experiment: Potency index, ratio of erlotinib IC50 to test compound IC50 for inhibition of HER2 (unknown origin) using FAM-labeled peptide as substrate preincubated for 10 mins followed by substrate addition measured after 40 mins in presence of ATP by caliper mobility shift assay
[15] = molecular target: T2, Receptor tyrosine-protein kinase erbB-2; experiment: Potency index, ratio of lapatinib IC50 to test compound IC50 for inhibition of HER2 (unknown origin) using FAM-labeled peptide as substrate preincubated for 10 mins followed by substrate addition measured after 40 mins in presence of ATP by caliper mobility shift assay
[16] = tested on: NCI-N87; experiment: Potency index, ratio of lapatinib IC50 to test compound IC50 for antiproliferative activity against human NCI-N87 cells overexpressing HER2 assessed as cell growth inhibition measured after 72 hrs by MTT assay; assay type: functional
[17] = tested on: A-431; experiment: Potency index, ratio of lapatinib IC50 to test compound IC50 for antiproliferative activity against human A431 cells overexpressing EGFR assessed as cell growth inhibition measured after 72 hrs by MTT assay; assay type: functional
[18] = tested on: BT-474; experiment: Potency index, ratio of lapatinib IC50 to test compound IC50 for antiproliferative activity against human BT474 cells overexpressing HER2 assessed as cell growth inhibition measured after 72 hrs by MTT assay; assay type: functional
[19] = tested on: Calu-3; experiment: Potency index, ratio of lapatinib IC50 to test compound IC50 for antiproliferative activity against human Calu3 cells overexpressing HER2 assessed as cell growth inhibition measured after 72 hrs by MTT assay; assay type: functional
[20] = tested on: NCI-N87; experiment: Potency index, ratio of gefitinib IC50 to test compound IC50 for antiproliferative activity against human NCI-N87 cells overexpressing HER2 assessed as cell growth inhibition measured after 72 hrs by MTT assay; assay type: functional
[21] = tested on: A-431; experiment: Potency index, ratio of gefitinib IC50 to test compound IC50 for antiproliferative activity against human A431 cells overexpressing EGFR assessed as cell growth inhibition measured after 72 hrs by MTT assay; assay type: functional
[22] = tested on: BT-474; experiment: Potency index, ratio of gefitinib IC50 to test compound IC50 for antiproliferative activity against human BT474 cells overexpressing HER2 assessed as cell growth inhibition measured after 72 hrs by MTT assay; assay type: functional
[23] = tested on: Calu-3; experiment: Potency index, ratio of gefitinib IC50 to test compound IC50 for antiproliferative activity against human Calu3 cells overexpressing HER2 assessed as cell growth inhibition measured after 72 hrs by MTT assay; assay type: functional
[24] = tested on: NCI-N87; experiment: Potency index, ratio of erlotinib IC50 to test compound IC50 for antiproliferative activity against human NCI-N87 cells overexpressing HER2 assessed as cell growth inhibition measured after 72 hrs by MTT assay; assay type: functional
[25] = tested on: A-431; experiment: Potency index, ratio of erlotinib IC50 to test compound IC50 for antiproliferative activity against human A431 cells overexpressing EGFR assessed as cell growth inhibition measured after 72 hrs by MTT assay; assay type: functional
[26] = tested on: BT-474; experiment: Potency index, ratio of erlotinib IC50 to test compound IC50 for antiproliferative activity against human BT474 cells overexpressing HER2 assessed as cell growth inhibition measured after 72 hrs by MTT assay; assay type: functional
[27] = tested on: Calu-3; experiment: Potency index, ratio of erlotinib IC50 to test compound IC50 for antiproliferative activity against human Calu3 cells overexpressing HER2 assessed as cell growth inhibition measured after 72 hrs by MTT assay; assay type: functional

SMILES	IC50 [1] [nM]	IC50 [2] [nM]	IC50 [3] [nM]	IC50 [4] [nM]	IC50 [5] [nM]	IC50 [6] [nM]	other results
CC1CCN(C/C=C/C(=O)N2CCOc3cc4ncnc(Nc5ccc(OCc6cccc(F)c6)c(Cl)c5)c4cc32)CC1	166	1220	1120	200			
O=C(/C=C/CN1CCOCC1)N1CCCOc2cc3ncnc(Nc4ccc(OCc5cccc(F)c5)c(Cl)c4)c3cc21	> 10000	> 10000	> 10000	> 10000	> 10000	> 10000	
O=C(/C=C/CN1CCCCC1)N1CCCOc2cc3ncnc(Nc4ccc(OCc5cccc(F)c5)c(Cl)c4)c3cc21	> 10000	1660	> 10000	> 10000	> 10000	844	
C#Cc1cccc(Nc2ncnc3cc(OCCOC)c(OCCOC)cc23)c1 [ERLOTINIB]	> 10000			> 10000			
O=C(/C=C/CN1CCCCC1)N1CCOc2cc3ncnc(Nc4ccc(OCc5cccc(F)c5)c(Cl)c4)c3cc21	73	1780	788	118		116	
CC1CCCCN1C/C=C/C(=O)N1CCOc2cc3ncnc(Nc4ccc(OCc5cccc(F)c5)c(Cl)c4)c3cc21 (stereo not drawn)	102	2310	448	127		179	
CCN(CC)C/C=C/C(=O)N1CCCOc2cc3ncnc(Nc4ccc(OCc5cccc(F)c5)c(Cl)c4)c3cc21	> 10000	1490	> 10000	116	> 10000	80	
CN1CCN(C/C=C/C(=O)N2CCCOc3cc4ncnc(Nc5ccc(OCc6cccc(F)c6)c(Cl)c5)c4cc32)CC1	1840	> 10000	8500	1700	> 10000	4870	
O=C(/C=C/CN1CCCC1)N1CCCOc2cc3ncnc(Nc4ccc(OCc5cccc(F)c5)c(Cl)c4)c3cc21	109	> 10000	791	172	> 10000	578	
CC1CCCCN1C/C=C/C(=O)N1CCCOc2cc3ncnc(Nc4ccc(OCc5cccc(F)c5)c(Cl)c4)c3cc21 (stereo not drawn)	502	> 10000	> 10000	1010	> 10000	5830	
CN(C)C/C=C/C(=O)N1CCCOc2cc3ncnc(Nc4ccc(OCc5cccc(F)c5)c(Cl)c4)c3cc21	74	> 10000	2400	127	> 10000	446	
CC1CCN(C/C=C/C(=O)N2CCCOc3cc4ncnc(Nc5ccc(OCc6cccc(F)c6)c(Cl)c5)c4cc32)CC1	838	> 10000	2090	990	> 10000	4870	

Molecules with a lower IC50 [1], results first:

IC50 [1] [nM]	IC50 [2] [nM]	IC50 [3] [nM]	IC50 [4] [nM]	IC50 [5] [nM]	IC50 [6] [nM]	SMILES	other results
53	7370	3590	37	216		CS(=O)(=O)CCNCc1ccc(-c2ccc3ncnc(Nc4ccc(OCc5cccc(F)c5)c(Cl)c4)c3c2)o1 [LAPATINIB]	
48	1670	633	60	177	121	O=C(/C=C/CN1CCCC1)N1CCOc2cc3ncnc(Nc4ccc(OCc5cccc(F)c5)c(Cl)c4)c3cc21	IC50 [7]: 7 nM; IC50 [8]: 4 nM; Ratio IC50 [9]: 4 - 8; Ratio IC50 [10]: 4 - 8; Ratio IC50 [11]: 4 - 8; Ratio IC50 [12]: 3 to 4; Ratio IC50 [13]: 70; Ratio IC50 [14]: 92; Ratio IC50 [15]: 3 to 4
37	1490	612	57	275	163	CCN(CC)C/C=C/C(=O)N1CCOc2cc3ncnc(Nc4ccc(OCc5cccc(F)c5)c(Cl)c4)c3cc21	IC50 [7]: 8 nM; IC50 [8]: 4 nM; Ratio IC50 [9]: 4 - 8; Ratio IC50 [10]: 4 - 8; Ratio IC50 [11]: 4 - 8; Ratio IC50 [12]: 3 to 4; Ratio IC50 [13]: 70; Ratio IC50 [14]: 92; Ratio IC50 [15]: 3 to 4
23	2000	2490	48		120	O=C(/C=C/Cn1ccnc1)N1CCOc2cc3ncnc(Nc4ccc(OCc5cccc(F)c5)c(Cl)c4)c3cc21	
18	2310	177	25	142	45	CN1CCN(C/C=C/C(=O)N2CCOc3cc4ncnc(Nc5ccc(OCc6cccc(F)c6)c(Cl)c5)c4cc32)CC1	IC50 [7]: 6 nM; IC50 [8]: 12 nM; Ratio IC50 [12]: 3.7
12	2540	258	21		126	CN(C)C/C=C/C(=O)N1CCOc2cc3ncnc(Nc4ccc(OCc5cccc(F)c5)c(Cl)c4)c3cc21	
11	4350	127	15	37	12	O=C(/C=C/CN1CCOCC1)N1CCOc2cc3ncnc(Nc4ccc(OCc5cccc(F)c5)c(Cl)c4)c3cc21	IC50 [7]: 7 nM; IC50 [8]: 12 nM; Ratio IC50 [16]: 2.5 - 28.3; Ratio IC50 [17]: 2.5 - 28.3; Ratio IC50 [18]: 2.5 - 28.3; Ratio IC50 [19]: 2.5 - 28.3; Ratio IC50 [20]: 4.3 - 26.6; Ratio IC50 [21]: 4.3 - 26.6; Ratio IC50 [22]: 4.3 - 26.6; Ratio IC50 [23]: 4.3 - 26.6; Ratio IC50 [24]: >5.9 - 909; Ratio IC50 [25]: >5.9 - 909; Ratio IC50 [26]: >5.9 - 909; Ratio IC50 [27]: >5.9 - 909
